These results are taken from PMC8335727 (Inorganic Chemistry, 2021).

Data set [1] is described as follows: pKa by UV–vis titrations in 30% (v/v) DMSO/H2O. As to conditions: 30% (v/v) DMSO/H2O solvent mixture, I = 0.1 M (KCl), T = 25 °C. It counts as physicochemical. The text has this:
Proton dissociation constants (pKa) of drug molecules indicate the actual protonation state and the charge at a given pH, and therefore pKa are important parameters that affect the pharmacokinetic properties as well.
On the basis of the spectral changes two well-separated deprotonation processes were observed between pH 2 and 11. The first proton dissociation step taking place at pH < 5 is accompanied by a blue shift, and the λmax is shifted from 362 to 322 nm. This deprotonation step is attributed to the proton on the pyridinium nitrogen (PyH^+). Upon an increase of the pH a new process occurred as evidenced by a new band in the range of 350–450 nm (Figure 7b) and an isosbestic point at 350 nm, namely, the deprotonation of the hydrazinic nitrogen. In the strongly basic pH range (pH > 11.2) new broad bands appear at 400–600 nm (Figure 7b) with irreversible spectral changes most likely due to an oxidation of the TSC by the air oxygen.
Therefore, only two pKa values could be determined (Table 1) based on the deconvolution of the UV–vis spectra recorded at pH < 11.2 for HL^1 (molar absorbance spectra are seen in Figure S8a) as the oxidation hindered the accurate determination of the pKa for the aromatic OH group. Two pKa values were computed for HL^2 from the UV–vis titration data (Figure S9) as well; however, only one pKa was obtained in the case of HL^3 (Table 1), namely, that for the deprotonation of the PyH^+, since the proton dissociation of the hydrazinic nitrogen and the oxidation of the TSC were partly overlapped. On the basis of the determined pKa values, it can be concluded that the presence of the electron-donating methyl group in HL^2 results in a significant increase of both pKa values when compared to that of HL^1. A similar behavior was reported for the analogous 2-formylpyridine and 2-acetylpyridine TSC in our previous work.[67] […] All proligands are air-sensitive in the strongly basic pH range (pH > 11).
The metal complexes often undergo transformation processes upon dissolution, such as protonation, deprotonation, or dissociation to a metal-free ligand and metal ion depending on the pH, their concentration, and the solution speciation. The knowledge of the actual chemical form of the biologically active metal complexes in solution close to physiologically relevant conditions is quite important to elucidate the mechanism of action. Therefore, the solution stability of the copper(II) complexes (Cu(HL^1)Cl2, [Cu(L^2)Cl], and Cu(HL^3)Cl2) was studied by UV–vis spectrophotometry. […] At lower pH this type of complex is protonated, and thus the neutral ligand is bound via (Npyridine,N,S) donor atoms, while a mixed hydroxido complex with the (Npyridine,N,S^–)(OH) coordination pattern is formed in the basic pH range. On the basis of the close structural similarities between HL^1–HL^3 and the listed TSCs with a simpler scaffold, the formation of the same type of complexes is feasible. UV–vis titrations were performed with the complexes in a 30% (v/v) DMSO/H2O solvent mixture, and representative spectra are shown for Cu(HL^1)Cl2 in Figure 8. The spectra remain intact in a broad pH range (2.7–7.6), and an absorption band is observed with λmax at 406 nm being typical for a S → Cu charge transfer. This finding indicates the dominant presence of only one kind of complex, which is most probably the species with the (Npyridine,N,S^–) tridentate coordination mode. By decreasing the pH the λmax is hypsochromically shifted to 322 nm. […]

For the next data set, the system named is Colo320. Briefly: MTT cytotoxicity assay, Colo320. The data set is classed as cell-based. The note with it: Homo sapiens, COLO 320, 72 h of exposure. The method, then: The in vitro cytotoxicity of the TSCs HL^1–HL^3, copper(II) complexes Cu(HL^1)Cl2, [Cu(L^2)Cl], and Cu(HL^3)Cl2, and oxidized TSCs HL^1a′, HL^1a″, and HL^2c′·CH3COOH was tested in the doxorubicin-sensitive Colo205 and the multidrug-resistant Colo320 human colonic adenocarcinoma cell lines as well as in normal human embryonal lung fibroblast cells (MRC-5) by the colorimetric MTT assay. […]
(§1) 2.5. In vitro cell studies
(§2) 2.5.1. Cell lines and culture conditions
All cell culture reagents were obtained from Sigma-Aldrich and plastic ware from Sarstedt
(Germany). Doxorubicin-sensitive human colonic Colo 205 and multidrug resistant
Colo 320/MDR-LRP adenocarcinoma cell lines were purchased from LGC Promochem,
Teddington, UK. The cells were cultured in Roswell Park Memorial Institute (RPMI) 1640
medium supplemented with 10% heat-inactivated fetal bovine serum, 2 mM L-glutamine, 1 mM
Na-pyruvate and 100 mM Hepes. The cell lines were incubated at 37°C, in a 5% CO2, 95% air
(§3) MRC-5 human embryonal lung fibroblast cell line (ATCC CCL-171) was purchased from LGC
(§4) Promochem, Teddington, UK. The cell line was cultured in Eagle’s Minimal Essential Medi um
(§5) (EMEM, containing 4.5 g/L glucose) supplemented with a non-essential amino acid mixture, a
(§6) selection of vitamins and 10% heat-inactivated fetal bovine serum. The cells were incubated at
(§7) 37°C, in a 5% CO2, 95% air atmosphere. All cell lines were detached with Trypsin-Versene
(§8) (EDTA) solution for 5 min at 37 °C.
(§9) The tested compounds were dissolved in DMSO using 10 mM concentration. Then stock solutions
(§10) were diluted in complete culture medium in 96-well microtiter plates, and two-fold serial dilutions
(§11) of compounds were prepared in 100 µL of RPMI 1640, horizontally. The semi-adherent colonic
(§12) adenocarcinoma cells were treated with Trypsin -Versene (EDTA) solution. They were adjusted to
(§13) a density of 1×10^4 cells in 100 µL of RPMI 1640 medium, and were added to each well, with the
(§14) exception of the medium control wells. The final volume of the wells containing compounds and
(§15) cells was 200 µL. The culture were incubated at 37 °C for 72 h; at the end of the incubation period,
(§16) 20 µL of MTT solution (from a stock solution of 5 mg/mL) were added to each well. After
(§17) incubation at 37 °C for 4 h, 100 µL of SDS solution (10% in 0.01 M HCI) were added to each well
(§18) and the plates were further incubated at 37 °C overnight. The cell growth was determined using
(§19) both methods by measuring the optical density (OD) at 450 nm (ref. 620 nm) with a Multiscan EX
(§20) ELISA reader. Inhibition of the cell growth (expressed as IC 50: inhibitory concentration that
(§21) reduces by 50% the growth of the cells exposed to the tested compounds) was determined from
(§22) the sigmoid curve where 100 – ((ODsample ‒ ODmedium control)/(ODcell control ‒ ODmedium control)) × 100
(§23) values were plotted against the logarithm of compound concentrations. […]
0.76 tyrosyl radical/polypeptide. Samples containing 20 µM mR2 in 50 mM HEPES buffer, pH
7.50/100 mM NaCl, and 20 µM respective compound in 1% (v/v) DMSO/H2O, and 2 mM
Background: Tetrazolium assays rely on reduction of a dye to a coloured formazan, in cell work by metabolically active cells.

The test system of a further data set is MRC-5. Briefly: MTT cytotoxicity assay, MRC-5. It counts as cell-based. The note with it: Homo sapiens, MRC5, 72 h of exposure. The method, then: as §1, §2
All cell culture reagents were obtained from Sigma-Aldrich and plastic ware from Sarstedt […]
as §3, §4, §5, §6, §7, §8, §9, §10, §11, §12, §13, §14, §15, §16, §17, §18, §19, §20, §21, §22, §23

For orientation: IC50 means the midpoint of a concentration-inhibition curve.

Read-outs that look alike come from different tables or passages of the source.

Turning to `Cc1cc(NC(=S)NN=Cc2ncccc2N)cc(C)c1O` [HL^3, 3-Amino-2-formylpyridine 4-(4-hydroxy-3,5-dimethylphenyl)thiosemicarbazone], the pKa in data set [1] (read-out: pKa (PyH^+)) was 3.95 ± 0.04. Moreover, the IC50 in the data set on Colo320 and in the data set on MRC-5 was greater than 100 µM throughout.

As to `CC(=NNC(=S)Nc1cc(C)c(O)c(C)c1)c1ccccn1` [HL^2, 2-Acetylpyridine 4-(4-hydroxy-3,5-dimethylphenyl)thiosemicarbazone], the pKa in data set [1] (read-out: pKa (NNH)) was 11.08 ± 0.02; in data set [1] (read-out: pKa (PyH^+)), 3.59 ± 0.02. Besides, the IC50 in the data set with Colo320 and in the data set on MRC-5 was greater than 100 µM throughout.

As to `Cc1cc(NC(=S)NN=Cc2ccccn2)cc(C)c1O` [HL^1, 2-Formylpyridine 4-(4-hydroxy-3,5-dimethylphenyl)thiosemicarbazone], the results for the pKa in data set [1] (read-out: pKa (NNH)) and in data set [1] (read-out: pKa (PyH^+)) were 10.55 ± 0.01 and 3.01 ± 0.01, respectively. Besides, the IC50 in the data set with Colo320 was 6.32 ± 0.49 µM; in the data set on MRC-5 it was greater than 100 µM.
